Bounds are passed on as bounds.

Test [1] concerns AB-PINACA antibody (raised against immunogen 2 of Example 6). Briefly: AB-PINACA ELISA, final validated kit with Tracer-2 (Example 10), specificity. As to conditions: for % Cross-Reactivity: AB-PINACA N-Pentanoic acid = 100. The class given is binding. How it is done:
A microtitre plates was precoated with AB-PINACA antibody (raised against immunogen 2 of Example 6). Pinaca derivative (antigen), if present in the sample competes with the horseradish peroxidase labelled AB-PINACA (enzyme labelled antigen, herein Tracer-2 of Example 8) for a limited number of antibody sites on the microtitre plate. After incubation at room temperature to allow a competition reaction to take place, the microtitre plate was washed to remove excess reagents. The enzyme substrate ([…]) was added. After an incubation period to allow maximum colour development, the colour reaction was stopped by the addition of acid. This produces a colour change from blue to yellow, and the absorbances are read at 450 nm. A standard curve was then constructed to determine the Pinaca derivative's concentration in the sample.
All reagents were left to reach room temperature (+15 to +25° C.) prior to use. In order to minimise edge effects microtitre plate was sealed with an adhesive plate sealer.
The assay was performed in duplicate. The following layout was used for a test plate where each box represents 2 wells.
• a) The following was pipetted into the appropriate wells of the microtitre plate:
• b) The microtitre plate was gently tapped plate from side to side for a few seconds. • c) The microtitre plate was covered with a plate sealer before incubating for 30 minutes at room temperature (+15 to +25° C.) in the dark. • d) The plate was inverted and the liquid was tapped out. • e) The plate was washed 6 times with diluted wash buffer (ensuring all wells were filled), over a 10-15 minute period. After the final wash the liquid was discarded and the plate was tapped onto lint free tissue paper until completely dry. • f) Immediately after washing, 125 μL of the one shot substrate II solution was pipetted into each well using a multichannel pipette. The microtitre plate was gently tapped from side to side and incubated for (20±2 minutes) at room temperature (+15 to +25° C.) in the dark. • g) The colour reaction was stopped by the addition of 100 μL of stop solution per well. A colour change from blue to yellow should be evident. • h) The optical density was measured at 450 nm within 10 minutes of stopping the colour reaction. The use of a 630 nm filter is recommended as the reference wavelength, if available. Standard Curve and Interpretation of Results • a) The mean absorbance of the standards, controls and samples were calculated. • b) The absorbances of standards against log10 (standard concentration) were plotted. • c) The control and sample concentrations were read from the standard curve. • d) To obtain concentrations for urine samples in ng/mL, the results were multiplied by 3 to take into account the dilution factor. • e) To obtain concentrations for whole blood samples in ng/mL, the results were multiplied by 4 to take into account the dilution factor. • f) It is recommended that a 4 parameter curve fit method is used when generating the standard curve. Limits of Detection
(ELISA stands for enzyme-linked immunosorbent assay.)

For test [2], the system named is Antibody to AB-Pinaca-KLH (raised against immunogen 2 of Example 6). Put plainly: Competitive ELISA characterising antibodies to AB-Pinaca-KLH with Tracer-1 (Example 9). The class given is binding. The settings on record: for % CR (percentage cross-reactivity): AB-Pinaca = 100.00; for IC50 (standard concentration which produces 50% inhibition of maximal signal): calibration curves 0-20 ng/ml. Here is the method: The wells of an enhanced binding 96 well polystyrene microtitre plate were coated with IgG fraction of antiserum raised to AB-Pinaca-KLH (Immunogen 2 of Example 6), diluted in 10 mM Tris, pH8.5 (125 μl/well). The appropriate antibody coating dilution was determined using standard ELISA checkerboard techniques. The plate was incubated for 2 hours at 37° C., washed 4 times over 10 minutes with Tris buffered saline containing Tween 20 (TBST) and tapped dry. Standard solutions of AB-Pinaca pentanoic acid were prepared in TBST at 0, 0.31, 0.63, 1.25, 2.50, 5.0, 10.0 and 20.0 ng/ml, and 50 μl of each was added to the appropriate wells. 75 μl of Tracer-1 (Example 7) diluted in Tris buffer (pH 7.2) containing EDTA, D-mannitol, sucrose, thimerosal and BSA, was added to each of the wells. The appropriate dilution of tracer was also determined using standard ELISA checkerboard techniques. The plate was incubated at 25° C. for 1 hour. Excess unbound tracer was removed by washing 6 times over a 10-15 minute period with TBST and tapped dry. 125 μl of tetramethylbenzidine (TMB) substrate solution was added to each well of the plate that was then incubated for 20 minutes in the dark at room temperature. The reaction was terminated by addition of 125 μl 0.2 M H2SO4 to each well. The absorbance was measured at 450 nm using a microtitre plate reader. In order to determine the specificity of the competitive ELISAs, standard solutions of a range of structurally similar compounds were prepared in TBST. Using calibration curves generated from these compounds (0-20 ng/ml), the cross-reactivity was determined.

Turning to `CC(C)C(NC(=O)c1nn(CCCCCF)c2ccccc12)C(N)=O` (stereo not shown) [5-fluoro AB-Pinaca, 5-fluoropentyl AB-Pinaca], the “% Cross-Reactivity” value in test [1] worked out at 98.9%. Besides, the “% CR (percentage cross-reactivity)” value in test [2] was 203.49%. Also, the “IC50 (standard concentration which produces 50% inhibition of maximal signal)” value in test [2] came out at 0.544 ng/mL. Moreover, the “B/Bo (Percentage B/B0)” value is 60.2% in test [2] (standard conc 0.31 ng/ml); 47.7% in test [2] (standard conc 0.63 ng/ml); 36.5% in test [2] (standard conc 1.25 ng/ml); 28.0% in test [2] (standard conc 2.50 ng/ml); 20.6% in test [2] (standard conc 5.00 ng/ml); 14.5% in test [2] (standard conc 10.00 ng/ml). In addition, the “B/Bo (Percentage B/B0)” value in test [2] (standard conc 20.00 ng/ml) is 10.1%. The “OD (absorbance at 450 nm)” value was 1.351 in test [2] (standard conc 0.31 ng/ml); 1.070 in test [2] (standard conc 0.63 ng/ml); 0.819 in test [2] (standard conc 1.25 ng/ml); 0.629 in test [2] (standard conc 2.50 ng/ml); 0.462 in test [2] (standard conc 5.00 ng/ml); 0.326 in test [2] (standard conc 10.00 ng/ml). The “OD (absorbance at 450 nm)” value in test [2] (standard conc 20.00 ng/ml) was 0.227.
`CC(C)C(NC(=O)c1nn(Cc2ccc(F)cc2)c2ccccc12)C(N)=O` (stereo not shown) [AB-Fubinaca, N-(1-amino-3-methyl-1-oxobutan-2-yl)-1-(4-fluorobenzyl)-1H-indazole-3-carboxamide]: in test [1], the “% Cross-Reactivity” value stood at 35.3%. The “% CR (percentage cross-reactivity)” value in test [2] is on record as 71.60%. For the same compound, the “IC50 (standard concentration which produces 50% inhibition of maximal signal)” value in test [2] worked out at 1.546 ng/mL. In addition, the “B/Bo (Percentage B/B0)” value in test [2] (standard conc 0.31 ng/ml) is recorded as 72.0%; in test [2] (standard conc 0.63 ng/ml) it was 64.4%; in test [2] (standard conc 1.25 ng/ml), 52.3%; in test [2] (standard conc 2.50 ng/ml) it was 42.7%; in test [2] (standard conc 5.00 ng/ml), 32.4%; in test [2] (standard conc 10.00 ng/ml), 22.9%. Further, the “B/Bo (Percentage B/B0)” value in test [2] (standard conc 20.00 ng/ml) was found to be 15.7%. Also, the “OD (absorbance at 450 nm)” value stood at 1.541 in test [2] (standard conc 0.31 ng/ml); 1.379 in test [2] (standard conc 0.63 ng/ml); 1.120 in test [2] (standard conc 1.25 ng/ml); 0.915 in test [2] (standard conc 2.50 ng/ml); 0.695 in test [2] (standard conc 5.00 ng/ml); 0.491 in test [2] (standard conc 10.00 ng/ml). Moreover, the “OD (absorbance at 450 nm)” value in test [2] (standard conc 20.00 ng/ml) is 0.337.
Turning to `CC(C)C(NC(=O)c1nn(CCCCC(=O)O)c2ccccc12)C(N)=O` (stereo not shown) [AB-Pinaca pentanoic acid], the “% Cross-Reactivity” value in test [1] is on record as 100%. The “% CR (percentage cross-reactivity)” value in test [2] is 64.25%. In addition, the “IC50 (standard concentration which produces 50% inhibition of maximal signal)” value in test [2] amounted to 1.723 ng/mL. In addition, the “B/Bo (Percentage B/B0)” value in test [2] (standard conc 0.31 ng/ml) came to 77.4%; in test [2] (standard conc 0.63 ng/ml), 69.7%; in test [2] (standard conc 1.25 ng/ml), 55.8%; in test [2] (standard conc 2.50 ng/ml), 42.2%; in test [2] (standard conc 5.00 ng/ml) it was 30.7%; in test [2] (standard conc 10.00 ng/ml), 21.2%. For the same compound, in test [2] (standard conc 20.00 ng/ml), the “B/Bo (Percentage B/B0)” value is recorded as 14.5%. Further, the “OD (absorbance at 450 nm)” value in test [2] (standard conc 0.31 ng/ml) was found to be 1.698; in test [2] (standard conc 0.63 ng/ml) it was 1.529; in test [2] (standard conc 1.25 ng/ml) it was 1.223; in test [2] (standard conc 2.50 ng/ml), 0.926; in test [2] (standard conc 5.00 ng/ml), 0.673; in test [2] (standard conc 10.00 ng/ml), 0.465. Further, the “OD (absorbance at 450 nm)” value in test [2] (standard conc 20.00 ng/ml) was 0.317.
In the case of `CC(C)C(NC(=O)c1nn(CCCCCO)c2ccccc12)C(N)=O` (stereo not shown) [1-(5-OHpentyl) AB-Pinaca, 1-(5-hydroxypentyl) AB-Pinaca], the “% Cross-Reactivity” value in test [1] is 83.8%. Besides, the “% CR (percentage cross-reactivity)” value in test [2] worked out at 124.80%. Besides, the “IC50 (standard concentration which produces 50% inhibition of maximal signal)” value in test [2] was found to be 0.887 ng/mL. The “B/Bo (Percentage B/B0)” value in test [2] (standard conc 0.31 ng/ml) amounted to 68.9%; in test [2] (standard conc 0.63 ng/ml) it was 56.6%; in test [2] (standard conc 1.25 ng/ml), 43.6%; in test [2] (standard conc 2.50 ng/ml) it was 33.6%; in test [2] (standard conc 5.00 ng/ml) it was 24.5%; in test [2] (standard conc 10.00 ng/ml), 17.3%. Besides, the “B/Bo (Percentage B/B0)” value in test [2] (standard conc 20.00 ng/ml) came out at 11.8%. Further, the “OD (absorbance at 450 nm)” value in test [2] (standard conc 0.31 ng/ml) was 1.415; in test [2] (standard conc 0.63 ng/ml), 1.163; in test [2] (standard conc 1.25 ng/ml), 0.896; in test [2] (standard conc 2.50 ng/ml) it was 0.690; in test [2] (standard conc 5.00 ng/ml), 0.504; in test [2] (standard conc 10.00 ng/ml), 0.356. In test [2] (standard conc 20.00 ng/ml), the “OD (absorbance at 450 nm)” value came out at 0.242.
For the compound `COc1ccccc1CC(=O)c1cn(CCCC(C)O)c2ccccc12` (stereo not shown) [JWH 250 N-(4-hydroxypentyl) metabolite], the “Concentration of compounds that elicit a negative response at the indicated concentration” value (“Concentration … at the indicated concentration” for short) in test [1] worked out at 100 ng/mL.
For `CCCCCCn1cc(C(=O)c2cccc3ccccc23)c2ccccc21` [JWH-019], in test [1], the “Concentration … at the indicated concentration” value came to 100 ng/mL.
On to `CC(C)(C)C(NC(=O)c1cn(CCCCCF)c2ccccc12)C(N)=O` (stereo not shown) [5-Fluoro ADBICA], for which the “% Cross-Reactivity” value in test [1] is recorded as 4.7%.
The same measure, in the same setting: then `CC(C)C(NC(=O)c1nn(Cc2ccc(F)cc2)c2ccccc12)C(=O)O` (stereo not shown) [AB-FUBINACA carboxylic acid], with 4.5%.
With `O=C(O)c1cn(CCCCCF)c2ccccc12` [5-fluoro PB-22 3-carboxyindole], in test [1], the “Concentration … at the indicated concentration” value was 100 ng/mL.
As for `CCCCCn1nc(C(=O)Nc2cccc3ccccc23)c2ccccc21` [MN-18], the “% Cross-Reactivity” value in test [1] was below 1%.
On to `CCCCCn1cc(C(=O)c2cccc3ccccc23)c2ccc(O)cc21` [JWH-018 6-Hydroxyindole], for which the “Concentration … at the indicated concentration” value in test [1] was determined as 100 ng/mL.
Same read-out and setting: as for `O=C(O)CCCn1cc(C(=O)c2cccc3ccccc23)c2ccccc21` [JWH-073 N-Butanoic acid], the figure is 100 ng/mL.
`CC(C)[C@H](NC(=O)c1nn(CC2CCCCC2)c2ccccc12)C(N)=O` [AB-CHMINACA]: the “% Cross-Reactivity” value in test [1] is 3.8%.
Consider `O=C(O)CCCCn1cc(C(=O)C23CC4CC(CC(C4)C2)C3)c2ccccc21` [AB001 N-Pentanoic Acid], for which the “Concentration … at the indicated concentration” value in test [1] came to 100 ng/mL.
As to `O=C(O)CCCCn1cc(C(=O)c2cccc3ccccc23)c2ccccc21` [JWH-018 N-Pentanoic acid], in test [1], the “Concentration … at the indicated concentration” value came to 100 ng/mL.
Consider `CC(C)C(NC(=O)c1nn(CCCC(O)CF)c2ccccc12)C(N)=O` (stereo not shown), for which the “% Cross-Reactivity” value in test [1] turned out to be 24.1%.
Take `CCCCCn1cc(C(=O)c2cccc3ccccc23)c2c(O)cccc21` [JWH-018 4-Hydroxyindole]: the “Concentration … at the indicated concentration” value in test [1] was 100 ng/mL.
`O=C(c1cccc2ccccc12)c1nn(CCCCCF)c2ccccc12` [THJ 2201]: the “Concentration … at the indicated concentration” value in test [1] is 100 ng/mL.

The values are drawn from US10509046B2, “Detection of indazole synthetic cannabinoids” (Randox Laboratories Limited, priority 2014, dated 2019).
